Consider two substances from US20200330655A1, “DELIVERY OF NITRIC OXIDE-RELEASING PHOSPHOLIPIDS, LIPOSOMES, AND HIGH DENSITY LIPOPROTEIN-LIKE NANOPARTICLES (HDL NPS) BY DRUG ELUTING STENTS AND INTRA-ARTERIAL INJECTION” (Northwestern University, priority 2016, published 2020).

Data set [1] is described as follows: SNO DPPTE exposure to light and/or room temperature. It is filed as physicochemical. The conditions noted are these: FIG. 17.
Data set [2] deals with porcine coronary injury model. To be noted: drug eluting stent loaded with the NO donor; cited from earlier work.

Regarding “S-nitrosylated 1,2-dipalmitoyl-sn-glycero-3-phosphothioethanol [SNO DPPTE]”, the “stability on exposure to light and/or room temperature” value in data set [1] is listed as “forms disulfide bonds”. For nitroprus side, the “neointimal hyperplasia and restenosis” value in data set [2] is reported as “did not reduce”.
